Test results from patent publication US9968084B2, “Synergistic herbicidal composition containing penoxsulam, triclopyr and imazethapyr” (Dow AgroSciences LLC, priority 2011, dated 2018).

Key:
Experiment in all cases: Postemergence herbicidal activity of mixtures in the field (rice), visual weed control
Format in all cases: in vivo
[1] = system: Brachiaria platyphylla (GRISEB.) NASH (BRAPP); settings: imazamox 44 g ai/ha
Protocol: (§1) Evaluation of Postemergence Herbicidal Activity of Mixtures in the Field
(§2) Field trials were conducted in rice using standard herbicide small plot research methodology. Plot size was 2×6 meter (m) with 4 replicates per treatment. The rice crop was grown using normal cultural practices for fertilization, seeding, watering, flooding and maintenance to ensure good growth of the crop and the weeds.
(§3) All treatments in the field trials were applied using a compressed air backpack sprayer calibrated to apply 187 liters per hectare (L/ha) spray volume. Commercially available products of the premix penoxsulam plus triclopyr (GraspXTRA® herbicide, trademark of Dow AgroSciences LLC) and imazethapyr or imazamox were mixed in water at appropriately formulated product rates to achieve the desired rates based on a unit area of application (hectare) to achieve the desired rates as shown. The GraspXTRA herbicide is a product that contains 0.25 lb penoxulam and 2.06 lb triclopyr triethylamine salt (1.5 lb acid equivalent) per gallon, so the weight ratio of the penoxulam to triclopyr acid equivalent is 1:6. Imazethapyr was used as Newpath 240 SL. imazamox was used as Beyond 120 SL. Treatments were rated at 15 to 63 days after application as compared to the untreated control plants. Visual weed control was scored on a scale of 0 to 100 percent where 0 corresponds to no injury and 100 corresponds to complete kill.
(§4) All treatment results, both for the single premix product, the single entity product and mixtures, are an average of 4 replicates and the tank mix interactions are significant at the […] level.
(§5) Colby's equation was used to determine the herbicidal effects expected from the mixtures (Colby, S. R. Calculation of the synergistic and antagonistic response of herbicide combinations. Weeds 1967, 15, 20-22.).
(§6) The following equation was used to calculate the expected activity of mixtures containing two active ingredients, A and B: Expected=A+B−(A×B/100)
(§7) A=observed efficacy of active ingredient A at the same concentration as used in the mixture.
(§8) B=observed efficacy of active ingredient B at the same concentration as used in the mixture.
(§9) All comparisons are an average of 4 replicates and are significant at the […] level. Rates of penoxsulam, triclopyr and imazethapyr or imazamox are expressed in grams active ingredient/hectare (g ai/ha).

[2] = system: Caperonia palustris ST.-HIL. (CNPPA); settings: imazamox 44 g ai/ha
Protocol: as §1, §2, §3, §4, §5, §6, §7, §8, §9

[3] = system: Echinochloa crus-galli (ECHCG)
Protocol: as §1, §2, §3, §4, §5, §6, §7, §8, §9

[4] = system: Setaria spp. (SETSS); settings: imazethapyr 70 g ai/ha
Protocol: as §1, §2, §3, §4, §5, §6, §7, §8, §9

With COCc1cnc(C2=NC(C)(C(C)C)C(=O)N2)c(C(=O)O)c1 (stereo not shown) [Imazamox, 2-[4,5-dihydro-4-methyl-4-(1-methylethyl)-5-oxo-1H-imidazol-2-yl]-5-(methoxymethyl)-3-pyridinecarboxylic acid] the “% Control 41 DAA BRAPP Ob” value [1] was 61%, the “% Control 43 DAA CNPPA Ob” value [2] was 0% and the “% Control 43 DAA ECHCG Ob” value ([3]; imazamox 44 g ai/ha, 43 DAA) was 78%.
With CCc1cnc(C2=NC(C)(C(C)C)C(=O)N2)c(C(=O)O)c1 (stereo not shown) [Imazethapyr, 2-[4,5-dihydro-4-methyl-4-(1-methylethyl)-5-oxo-1H-imidazol-2-yl]-5-ethyl-3-pyridinecarboxylic acid] the “% Control 15DAA SETSS Ob” value ([4]; 15 DAA) was 69%, the “% Control 63DAA SETSS Ob” value ([4]; 63 DAA) was 36% and the “% Control 15DAA ECHCG Ob” value ([3]; imazethapyr 70 g ai/ha, 15 DAA) was 69%. The “% Control 63DAA ECHCG Ob” value ([3]; imazethapyr 70 g ai/ha, 63 DAA) was 36%.
